Assay results from patent US9023855B2, “Compounds” (Chiesi Farmaceutici S.p.A., priority 2011, dated 2015).

Target: T1, human neutrophil elastase (HNE) (Homo sapiens, UniProt P08246)
T1 construct: purchased Sigma E8140
T1 sequence (P08246 30-267): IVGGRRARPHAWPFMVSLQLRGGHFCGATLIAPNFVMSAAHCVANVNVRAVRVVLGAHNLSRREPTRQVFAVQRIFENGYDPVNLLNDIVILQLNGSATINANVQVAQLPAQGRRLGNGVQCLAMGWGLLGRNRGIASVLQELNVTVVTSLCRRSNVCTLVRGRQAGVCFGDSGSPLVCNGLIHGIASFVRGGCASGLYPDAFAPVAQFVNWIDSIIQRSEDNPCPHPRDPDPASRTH
Test: HNE enzyme assay (fluorogenic peptide substrate MeOSuc-Ala-Ala-Pro-Val-AMC)
Format: biochemical
Details: human leukocyte elastase, substrate 100 μM, 25° C., 30 minutes, at least two separate experiments; read-out: HNE inhibition (IC50 values)
Experimental: Compounds of this invention were tested for potency in a human neutrophil elastase (HNE) enzyme activity assay.
Assays were performed in 96-well plates in a total assay volume of 100 μl. The final concentration of elastase enzyme (human leukocyte elastase, Sigma E8140) was 0.0036 units/well […]. The peptide substrate (MeOSuc-Ala-Ala-Pro-Val-AMC, Calbiochem #324740) was used at a final concentration of 100 μM. The final concentration of DMSO was 1% in the assay buffer (0.05M Tris.HCl, 0.1M NaCl, 0.1M CaCl2, 0.0005% brij-35, pH 7.5). The enzymatic reaction was started by addition of the enzyme and incubated at 25° C. for 30 minutes. After incubation, the reaction was stopped by addition of soybean trypsin inhibitor (Sigma T9003) at a final concentration of 50 μg/well. Fluorescence was measured using a Molecular Devices fluorescence plate reader using 380 nm excitation and 460 nm emission wavelengths.
A dose response to each compound was performed, and the effect of the compound in each experiment was expressed as a percentage inhibition of the control enzyme fluorescence. Dose response curves were plotted and compound potency (IC50) was determined. Compounds were tested in at least two separate experiments.

Row | SMILES | IC50 [nM]
1 | COC(=O)C1=C(C)N(c2cccc(C(F)(F)F)c2)c2nn(CCCN(C)S(C)(=O)=O)c(=O)n2C1c1ccc(C#N)cc1 (centres unmarked) [Example 36, 5-(4-Cyano-phenyl)-2-[3-(methanesulfonyl-methyl-amino)-propyl]-7-methyl-3-oxo-8-(3-trifluoromethyl-phenyl)-2,3,5,8-tetrahydro-[1,2,4]triazolo[4,3-a]pyrimidine-6-carboxylic acidmethyl ester] | < 20
2 | COC(=O)C1=C(C)N(c2cccc(C(F)(F)F)c2)c2nn(CCCN3CCCC3=O)c(=O)n2C1c1ccc(C#N)cc1 (centres unmarked) [Example 24, 5-(4-Cyano-phenyl)-7-methyl-3-oxo-2-[3-(2-oxo-pyrrolidin-1-yl)-propyl]-8-(3-trifluoromethyl-phenyl)-2,3,5,8-tetrahydro-[1,2,4]triazolo[4,3-a]pyrimidine-6-carboxylic acid methyl ester] | < 20
3 | CC1=C(C(=O)OCCN(C)C)C(c2ccc(C#N)cc2)n2c(n[nH]c2=O)N1c1cccc(C(F)(F)F)c1 (centres unmarked) [Example 10, 5-(4-Cyano-phenyl)-7-methyl-3-oxo-8-(3-trifluoromethyl-phenyl)-2,3,5,8-tetrahydro-[1,2,4]triazolo[4,3-a]pyrimidine-6-carboxylic acid 2-dimethylamino-ethyl ester] | < 20
4 | COC(=O)C1=C(C)N(c2cccc(C(F)(F)F)c2)c2nn(CCCS(C)(=O)=O)c(=O)n2[C@@H]1c1ccc(C#N)cc1 [Example 18, (R)-5-(4-Cyano-phenyl)-2-(3-methanesulfonyl-propyl)-7-methyl-3-oxo-8-(3-trifluoromethyl-phenyl)-2,3,5,8-tetrahydro-[1,2,4]triazolo[4,3-a]pyrimidine-6-carboxylic acid methyl ester] | < 20
5 | COC(=O)C1=C(C)N(c2cccc(C(F)(F)F)c2)c2nn(CCCS(=O)(=O)CCC[N+](C)(C)C)c(=O)n2C1c1ccc(C#N)cc1 (centres unmarked) [Example 37, (3-{3-[5-(4-Cyano-phenyl)-6-methoxycarbonyl-7-methyl-3-oxo-8-(3-trifluoromethyl-phenyl)-5,8-dihydro-[1,2,4]triazolo[4,3-a]pyrimidin-2-yl]-propane-1-sulfonyl}-propyl)-trimethylammonium toluene-4-sulfonate] | < 20
6 | CC1=C(C(=O)O)C(c2ccc(C#N)cc2)n2c(n[nH]c2=O)N1c1cccc(C(F)(F)F)c1 (centres unmarked) [Example 9, 5-(4-Cyano-phenyl)-7-methyl-3-oxo-8-(3-trifluoromethyl-phenyl)-2,3,5,8-tetrahydro-[1,2,4]triazolo[4,3-a]pyrimidine-6-carboxylic acid] | < 20
7 | COC(=O)C1=C(C)N(c2cccc(C(F)(F)F)c2)c2nn(CC(N)=O)c(=O)n2C1c1ccc(C#N)cc1 (centres unmarked) [Example 2, 2-Carbamoylmethyl-5-(4-cyanophenyl)-7-methyl-3-oxo-8-(3-trifluoromethylphenyl)-2,3,5,8-tetrahydro-[1,2,4]triazolo[4,3-a]pyrimidine-6-carboxylic acid methyl ester] | < 20
8 | CCNC(=O)C1=C(C)N(c2cccc(C(F)(F)F)c2)c2n[nH]c(=O)n2C1c1ccc(C#N)cc1 (centres unmarked) [Example 12, 5-(4-Cyano-phenyl)-7-methyl-3-oxo-8-(3-trifluoromethyl-phenyl)-2,3,5,8-tetrahydro-[1,2,4]triazolo[4,3-a]pyrimidine-6-carboxylic acid ethylamide] | 20 to 100
9 | COC(=O)C1=C(C)N(c2cccc(C(F)(F)F)c2)c2nn(CCCS(=O)(=O)CCC[N+](C)(C)C)c(=O)n2[C@@H]1c1ccc(C#N)cc1 [Example 38, (R)-(3-{3-[5-(4-Cyano-phenyl)-6-methoxycarbonyl-7-methyl-3-oxo-8-(3-trifluoromethyl-phenyl)-5,8-dihydro-[1,2,4]triazolo[4,3-a]pyrimidin-2-yl]-propane-1-sulfonyl}-propyl)-trimethylammonium chloride] | < 20
10 | COC(=O)C1=C(C)N(c2cccc(C(F)(F)F)c2)c2nn(CCCS(C)(=O)=O)c(=O)n2C1c1ccc(C#N)cc1 (centres unmarked) [Example 16, 5-(4-Cyano-phenyl)-2-(3-methanesulfonyl-propyl)-7-methyl-3-oxo-8-(3-trifluoromethyl-phenyl)-2,3,5,8-tetrahydro-[1,2,4]triazolo[4,3-a]pyrimidine-6-carboxylic acid methyl ester] | < 20
11 | COC(=O)C1=C(C)N(c2cccc(C(F)(F)F)c2)c2nn(CC(=O)N(C)CCCCCN(C)C)c(=O)n2C1c1ccc(C#N)cc1 (centres unmarked) [Example 30, 5-(4-Cyano-phenyl)-2-{[(5-dimethylamino-pentyl)-methyl-carbamoyl]-methyl}-7-methyl-3-oxo-8-(3-trifluoromethyl-phenyl)-2,3,5,8-tetrahydro-[1,2,4]triazolo[4,3-a]pyrimidine-6-carboxylic acid methyl ester] | < 20
12 | CC1=C(C#N)C(c2ccc(C#N)cc2)n2c(nn(CCCS(=O)(=O)CCC[N+](C)(C)C)c2=O)N1c1cccc(C(F)(F)F)c1 (centres unmarked) [Example 39, (3-{3-[6-Cyano-5-(4-cyano-phenyl)-7-methyl-3-oxo-8-(3-trifluoromethyl-phenyl)-5,8-dihydro-[1,2,4]triazolo[4,3-a]pyrimidin-2-yl]-propane-1-sulfonyl}-propyl)-trimethylammonium toluene-4-sulfonate] | < 20
13 | COC(=O)C1=C(C)N(c2cccc(C(F)(F)F)c2)c2n[nH]c(=O)n2C1c1ccc(C#N)cc1 (centres unmarked) [Example 1, 5-(4-Cyanophenyl)-7-methyl-3-oxo-8-(3-trifluoromethylphenyl)-2,3,5,8-tetrahydro-[1,2,4]triazolo[4,3-a]pyrimidine-6-carboxylic acid methyl ester] | < 20
14 | COC(=O)C1=C(C)N(c2cccc(C(F)(F)F)c2)c2nn(Cc3ccc(S(C)(=O)=O)cn3)c(=O)n2C1c1ccc(C#N)cc1 (centres unmarked) [Example 23, 5-(4-Cyano-phenyl)-2-(5-methanesulfonyl-pyridin-2-ylmethyl)-7-methyl-3-oxo-8-(3-trifluoromethyl-phenyl)-2,3,5,8-tetrahydro-[1,2,4]triazolo[4,3-a]pyrimidine-6-carboxylic acid methyl ester] | < 20

Continued, values first:

Row | IC50 [nM] | SMILES
15 | < 20 | COC(=O)C1=C(C)N(c2cccc(C(F)(F)F)c2)c2nn(CC(=O)N(C)CCCCC[N+](C)(C)C)c(=O)n2C1c1ccc(C#N)cc1 (centres unmarked) [Example 32, [5-({2-[5-(4-Cyano-phenyl)-6-methoxycarbonyl-7-methyl-3-oxo-8-(3-trifluoromethyl-phenyl)-5,8-dihydro-[1,2,4]triazolo[4,3-a]pyrimidin-2-yl]-acetyl}-methyl-amino)pentyl]-trimethyl-ammonium; bromide]
16 | < 20 | COC(=O)C1=C(C)N(c2cccc(C(F)(F)F)c2)c2nn(CC(=O)N(C)CC[N+](C)(C)C)c(=O)n2C1c1ccc(C#N)cc1 (centres unmarked) [Example 27, [2-({2-[5-(4-Cyano-phenyl)-6-methoxycarbonyl-7-methyl-3-oxo-8-(3-trifluoromethyl-phenyl)-5,8-dihydro-[1,2,4]triazolo[4,3-a]pyrimidin-2-yl]-acetyl}-methyl-amino)-ethyl]trimethyl-ammonium bromide]
17 | < 20 | COC(=O)C1=C(C)N(c2cccc(C(F)(F)F)c2)c2nn(CC(=O)N(C)CCCC[N+](C)(C)C)c(=O)n2C1c1ccc(C#N)cc1 (centres unmarked) [Example 31, [4-({2-[5-(4-Cyano-phenyl)-6-methoxycarbonyl-7-methyl-3-oxo-8-(3-trifluoromethyl-phenyl)-5,8-dihydro-[1,2,4]triazolo[4,3-a]pyrimidin-2-yl]-acetyl}-methyl-amino)-butyl]-trimethylammonium bromide]
18 | < 20 | COC(=O)C1=C(C)N(c2cccc(C(F)(F)F)c2)c2nn(CC(=O)N(C)CCC[N+](C)(C)C)c(=O)n2C1c1ccc(C#N)cc1 (centres unmarked) [Example 28, [3-({2-[5-(4-Cyano-phenyl)-6-methoxycarbonyl-7-methyl-3-oxo-8-(3-trifluoromethyl-phenyl)-5,8-dihydro-[1,2,4]triazolo[4,3-a]pyrimidin-2-yl]-acetyl}-methyl-amino)propyl]-trimethyl-ammonium; bromide]
19 | < 20 | COC(=O)C1=C(C)N(c2cccc(C(F)(F)F)c2)c2nn(CC(=O)N(C)CCCCC[N+](C)(C)C)c(=O)n2[C@@H]1c1ccc(C#N)cc1 [Example 34, (R)-[5-({2-[5-(4-Cyano-phenyl)-6-methoxycarbonyl-7-methyl-3-oxo-8-(3-trifluoromethyl-phenyl)-5,8-dihydro-[1,2,4]triazolo[4,3-a]pyrimidin-2-yl]-acetyl}-methyl-amino)pentyl]-trimethyl-ammonium chloride]
20 | < 20 | COC(=O)C1=C(C)N(c2cccc(C(F)(F)F)c2)c2nn(CC(=O)N(C)CCCN(C)C)c(=O)n2C1c1ccc(C#N)cc1 (centres unmarked) [Example 26, 5-(4-Cyano-phenyl)-2-{[(3-dimethylamino-propyl)-methyl-carbamoyl]-methyl}-7-methyl-3-oxo-8-(3-trifluoromethyl-phenyl)-2,3,5,8-tetrahydro-[1,2,4]triazolo[4,3-a]pyrimidine-6-carboxylic acid methyl ester]
